Series [1] relates to Trypanosoma brucei rhodesiense. The experiment in a line: […] activity against Trypanosoma brucei rhodesiense STIB 900 by microplate assay. The class given is functional, organism-based.
A short description of series [2]: Selectivity index, ratio of IC50 for rat L6 cells to IC50 for chloroquine and pyrimethamine-resistant Plasmodium falciparum K1. Type of series: toxicity, cell-based. The note with it: read-out: Ratio IC50.
Another series has as its system L6. The experiment in a line: Cytotoxicity against rat L6 cells. The class given is cell-based.
The nature of series [3]: Selectivity index, ratio of IC50 for rat L6 cells to IC50 for Trypanosoma brucei rhodesiense STIB 900. Conditions: read-out: Ratio IC50. The class given is toxicity, cell-based.
The next series concerns Plasmodium falciparum. The experiment in a line: Antiplasmodial activity against chloroquine and pyrimethamine-resistant Plasmodium falciparum K1 by microplate assay. Type of series: functional, organism-based.

Structures are written as SMILES. pIC50: −log10 of the molar value.

A word on the pIC50: it is −log10 of the IC50, conventionally taken in molar units. In the case of `c1ccc(CCN2CCC3(N4CCCCC4)CC(c4ccccc4)C2C(c2ccccc2)C3)cc1` (racemic), the pIC50 in series [1] is 5.92; in the series with L6, 5.08; in the series on Plasmodium falciparum, 6.15. Further, the selectivity ratio was 11.8 in series [2] and 7 in series [3].

`Clc1ccc(C2CC3(N4CCCCC4)CCNC2C(c2ccc(Cl)cc2)C3)cc1` (stereo not given): the selectivity ratio came to 17.6 in series [2] and 125 in series [3].

For the compound `CN1CCC2(N3CCCC3)CC(c3ccc(Cl)cc3)C1C(c1ccc(Cl)cc1)C2` (racemic), the pIC50 is 6.46 in series [1], 5.13 in the series with L6 and 6.06 in the series with Plasmodium falciparum. Also, the selectivity ratio in series [2] amounted to 8.44; in series [3], 21.

Turning to `CN(C)C12CCN(CCN3CCCC3)C(C(c3ccccc3)C1)C(c1ccccc1)C2` (racemic), the negative logarithm of the IC50 (pIC50) was 5.88 in series [1], 4.09 with L6 and 6.23 with Plasmodium falciparum. In addition, the selectivity ratio was 136 in series [2] and 60.9 in series [3].

For `c1ccc(CCN2CCC3(N4CCCC4)CC(c4ccccc4)C2C(c2ccccc2)C3)cc1` (racemic), the pIC50 was 6.03 in series [1], 5.43 in the series with L6 and 6.02 in the series on Plasmodium falciparum. The selectivity ratio in series [2] was 3.84; in series [3], 3.97.

Regarding `c1ccc(C2CC3(N4CCCC4)CCN(CCN4CCCC4)C2C(c2ccccc2)C3)cc1` (racemic), the pIC50 in series [1] was 5.47; in the series with L6, 4.23; in the series on Plasmodium falciparum it was 6.30. Moreover, the values for the selectivity ratio in series [2] and in series [3] were 116 and 17.2, respectively.

For the compound `Clc1ccc(C2CC3(N4CCCC4)CCNC2C(c2ccc(Cl)cc2)C3)cc1` (stereo not given), the selectivity ratio is 40.2 in series [2] and 152 in series [3].

Consider `Clc1ccc(C2CC3(N4CCCCC4)CCN(CCc4ccccc4)C2C(c2ccc(Cl)cc2)C3)cc1` (racemic), for which the pIC50 was 5.73 in series [1], 5.10 in the series with L6 and 6.14 in the series on Plasmodium falciparum. Besides, the selectivity ratio in series [2] worked out at 10.8; in series [3] it was 4.24.

With `c1ccc(CN2CCC3(N4CCCC4)CC(c4ccccc4)C2C(c2ccccc2)C3)cc1` (racemic), the pIC50 was 6.05 in series [1], 5.33 in the series on L6 and 6.09 with Plasmodium falciparum. In addition, the selectivity ratio was 5.67 in series [2] and 5.17 in series [3].

Consider `CN1CCC2(N3CCCC3)CC(c3ccccc3)C1C(c1ccccc1)C2` (racemic), for which the pIC50 in series [1] is 5.73; in the series with L6, 4.04; with Plasmodium falciparum, 5.76. The selectivity ratio was determined as 53.5 in series [2] and 49.5 in series [3].

As for `CN(C)C12CCN(CCc3ccccc3)C(C(c3ccc(Cl)cc3)C1)C(c1ccc(Cl)cc1)C2` (racemic), the pIC50 in series [1] is 6.03; in the series with L6 it was 5.47; in the series with Plasmodium falciparum, 6.33. Besides, the selectivity ratio in series [2] was 7.23; in series [3], 3.66.

Regarding `Clc1ccc(C2CC3(N4CCCC4)CCN(CCc4ccccc4)C2C(c2ccc(Cl)cc2)C3)cc1` (racemic), the pIC50 was 5.94 in series [1], 5.37 in the series on L6 and 6.28 in the series on Plasmodium falciparum. Further, the selectivity ratio in series [2] is 8.12; in series [3], 3.7.

Consider `c1ccc(C2CC3(N4CCCCC4)CCN(CCN4CCCC4)C2C(c2ccccc2)C3)cc1` (racemic), for which the pIC50 in series [1] was 4.59; in the series with L6, 3.81; in the series with Plasmodium falciparum, 7.04. Also, the results for the selectivity ratio in series [2] and in series [3] were 1690 and 6.09, respectively.

`CN1CCC2(N(C)C)CC(c3ccccc3)C1C(c1ccccc1)C2` (racemic): the results for the pIC50 (in series [1]; in the series on L6) were 5.75 and 3.96, respectively. For the same compound, the selectivity ratio in series [3] was 61.9.

For `C[C@@H]1CC[C@H]2[C@@H](C)C(=O)O[C@@H]3O[C@@]4(C)CC[C@@H]1[C@]32OO4` [ARTEMISININ], the pIC50 with Plasmodium falciparum was 8.19.

On to `CN(C)C12CCN(CCc3ccccc3)C(C(c3ccccc3)C1)C(c1ccccc1)C2` (racemic), for which the negative-log IC50 (pIC50) in series [1] is 6.24; with L6 it was 5.34; in the series with Plasmodium falciparum, 6.92. Also, the selectivity ratio worked out at 38.3 in series [2] and 8.07 in series [3].

`CN(C)C12CCN(Cc3ccccc3)C(C(c3ccccc3)C1)C(c1ccccc1)C2` (racemic): the values for the pIC50 (in series [1]; in the series with L6; with Plasmodium falciparum) were 5.85, 5.13 and 6.22, respectively. The selectivity ratio in series [2] was 12.2; in series [3], 5.2.

Consider `CN(C)C12CCNC(C(c3ccc(Cl)cc3)C1)C(c1ccc(Cl)cc1)C2` (stereo not given), for which the selectivity ratio in series [2] was 21.3; in series [3] it was 143.
